According to article PMC8345109, “Optimization of New Catalytic Topoisomerase II Inhibitors as an Anti-Cancer Therapy” (Cancers, 2021):
Values after ≈ are worked out from the molar mass of the structure shown. Like-named read-outs stand apart in the source and are kept apart here.

What was measured:
Solubility by LC/MS/MS = assay type: physicochemical; details: for solubility at 1 h: kinetic from dmso stock
Procedure: Stock solutions of the tested compounds at 50 mM in dimethyl sulfoxide (DMSO) were diluted 50-fold in methanol (MeOH), Roswell Park Memorial Institute-1640 (RPMI1640), plus 5% charcoal-stripped serum (CSS) from Sigma-Aldrich (media) and phosphate-buffered saline (PBS), and vortexed at room temperature for 1 h at 800 rpm. The resulting solutions were centrifuged at 20,000× g for 5 min, and the saturated supernatants were diluted 40-fold in acetonitrile. The resultant solutions were subjected to LC/MS/MS to determine the solubility.

TOP2A [1] = target: T1, TOP2A (Homo sapiens, UniProt P11388); experiment: K-DNA decatenation assay, TOP2A; assay type: biochemical; details: 0.01-200 uM, three biological repeats
Procedure: (§1) Figure 2 T637 and T638 are TOP2A inhibitors. (A) K-DNA decatenation assays and (B) supercoiled plasmid DNA relaxation assays are used to measure TOP2A enzyme activity in the presence of 0.01–200 uM T637 or T638. Three biological repeats were performed with each concentration of the compounds, and the densitometry of the D-DNA bands from (A) and the SC bands from (B) was used to establish an inhibition curve for IC50 calculation.

TOP2A [2] = target: T1, TOP2A; experiment: Supercoiled plasmid DNA relaxation assay, TOP2A; assay type: biochemical; details: 0.01-200 uM, three biological repeats
Procedure: as §1

TOP2B [3] = target: T2, TOP2B (Homo sapiens, UniProt Q02880); experiment: K-DNA decatenation assay, TOP2B; assay type: biochemical; details: 0.01-200 uM, three biological repeats
Procedure: as §1, with “Figure 3” for “Figure 2”, “are TOP2B” for “are TOP2A”, “measure TOP2B” for “measure TOP2A enzyme”

TOP2B [4] = target: T2, TOP2B; experiment: Supercoiled plasmid DNA relaxation assay, TOP2B; assay type: biochemical; details: 0.01-200 uM, three biological repeats
Procedure: as §1, with “Figure 3” for “Figure 2”, “are TOP2B” for “are TOP2A”, “measure TOP2B” for “measure TOP2A enzyme”

salmon sperm DNA = experiment: Ethidium bromide displacement assay; assay type: binding; details: 100 µg/mL salmon sperm DNA, 2 µg/mL ethidium bromide
Procedure: (§2) (A) Ethidium bromide displacement assays were performed by mixing 100 µg/mL salmon sperm DNA with −/+2 µg/mL ethidium bromide and the indicated compounds. Reactions were subjected to fluorescence emission of 590 nm and excitation of 535 nm. Obtained signals were detected by using the Multimode Microplate Reader (Infinite F500). […] Reactions were subjected to 5–20% LED/excitation power and medium MST power using premium capillaries. Obtained signals were detected by using the Monolith NT.115 system. The change in thermophoresis is expressed as the change in the normalized fluorescence (ΔFnorm). MST assays were repeated with two control compounds, enzalutamide (Enza) and merbarone.

human TOP2A(431-1193) [5] = target: T3, human TOP2A(431-1193) (Homo sapiens, UniProt P11388); experiment: EMSA, TOP2A(431-1193) with 5ZRF DNA oligo; assay type: binding; details: 2 uM protein, 300 nM oligo
T3 construct: 6xHis (N); made in house; host or cells: E. coli BL21 (DE3)

human TOP2A(431-1193) [6] = target: T3, human TOP2A(431-1193); experiment: Fluorescence polarization (FP) assay of TOP2A-DNA interaction; assay type: binding; details: 500 nM protein, 0.01-200 µM compound
Procedure: Fluorescent polarization assay was performed in Corning® Low Volume 384-well Black Flat Bottom microplate. […] Triplicate reactions were transferred onto the microplate and incubated at room temperature for 20 min. Fluorescence polarization (FP) measurements were taken by Tecan Infinite F500 with the excitation wavelength of 485 nm and emission wavelength of 535 nm.
(§3) (A) EMSA was performed by purified full-length TOP2A or TOP2B proteins at a contraction of 300 nM with IRDay700 labeled 5ZRF DNA oligo at a concentration of 100 nM in the presence of −/+200 µM of ICRF193, T60, T637, and T638. […] Reactions were subjected to fluorescence […], which were detected by using the Multimode Microplate Reader (Infinite F500). (D) DNA cleavage assays were performed using full-length human TOP2A and TOP2B incubated with the supercoiled pHOT plasmid in the presence of 200 µM of etoposide plus 1, 100, or 200 µM of ICRF193, T60, T637, and T638. Reactions were separated on a DNA gel with ethidium bromide. All experiments were repeated three times, and one representative image was shown. Note: N, nicked DNA; L, linear DNA; and SC, supercoiled DNA.

[7] = Crystal formation (precipitation) in cell cultures; assay type: physicochemical
Procedure: Both T637 and T638 have improved solubility in aqueous solution and culture media compared to T60 (Figure 1). […] When cells are growing in the culture media and treated with T60 at concentrations ≥50 uM for two days, T60 will form crystals, likely due to the altered pH values by the cells that induce T60 precipitation. […] These improvements in solubility allow higher doses of compounds to be used to treat cancer cells to reach maximum tumor suppression.

in vitro = details: mouse, liver microsomes, pH 7.4
Procedure: The reaction was initiated by adding NADPH, followed by incubation at 37 °C. […] The samples were then vortexed and centrifuged at 16,000 rpm for 10 min at 4 °C. The supernatants were collected and analyzed by LC/MS/MS to determine the remaining percentage and the half-life (t1/2) by integrating compound peaks and fitting the resulting AUC values and time points to a one-phase decay equation.

K562 cells [8] = experiment: Cytotoxicity by LDH release; details: for Cytotoxicity (LDH release), in words: K562, 0-20 uM, 48 h
Procedure: (§4) (A) K562 cells were treated with 0, 0.5, 1, 5, 10, 15, and 20 uM of T60 or 0, 0.5, 1, 5, 10, 15, 20, 50, and 100 uM of T637 and T638 for 24, 48, or 72 h. […] (B) NCI-H446 small cell lung cancer line and Hela cervical cancer line were treated with 0, 0.5, 1, 5, 10, 15, and 20 uM of T60 or 0, 0.5, 1, 5, 10, 15, 20, 50, and 100 uM of T637 and T638 for five days. Cell growth rates were measured by using Incucyte^TM. (C) K562 cells were treated with 0, 5, 10, 15, and 20 uM of T60, T637, or T638 for 48 h. Cytotoxicity was evaluated by measuring the LDH levels from the culture media. (D) K562 cells were treated with the vehicle or 10–20 µM of etoposide, T60, T637, or T638 for 4 h. Immunoblotting measured p-H2AXγ levels in cells with vinculin as a loading control.

K562 leukemia cells = experiment: K562 cell proliferation (MTS assay); details: for inhibition at 20 µM: Homo sapiens, read-out: Maximum cell proliferation inhibition; for Maximum cell proliferation inhibition: K562, up to 100 uM
Procedure: as §4

full-length TOP2A [9] = target: T4, full-length TOP2A (Homo sapiens, UniProt P11388); experiment: EMSA, full-length TOP2A with 5ZRF DNA oligo; assay type: binding; design: EMSA was performed by purified full-length TOP2A or TOP2B proteins; details: 200 µM compound, 300 nM protein, 100 nM oligo
Procedure: as §3

full-length TOP2B [10] = target: T5, full-length TOP2B (Homo sapiens, UniProt Q02880); experiment: EMSA, full-length TOP2B with 5ZRF DNA oligo; assay type: binding; design: EMSA was performed by purified full-length TOP2A or TOP2B proteins; details: 200 µM compound, 300 nM protein, 100 nM oligo
Procedure: as §3

K562 cells [11] = experiment: Immunoblotting of p-H2AXγ (DNA damage); details: K562, 10-20 µM, 4 h
Procedure: as §4

full-length TOP2A [12] = target: T4, full-length TOP2A; experiment: DNA cleavage assay, TOP2A; assay type: biochemical; design: DNA cleavage assays were performed using full-length human TOP2A and TOP2B; details: 200 µM etoposide plus 1, 100 or 200 µM compound, pHOT plasmid
Procedure: as §3

full-length TOP2B [13] = target: T5, full-length TOP2B; experiment: DNA cleavage assay, TOP2B; assay type: biochemical; design: DNA cleavage assays were performed using full-length human TOP2A and TOP2B; details: 200 µM etoposide plus 1, 100 or 200 µM compound, pHOT plasmid
Procedure: as §3

human TOP2A(431-1193) [14] = target: T3, human TOP2A(431-1193); experiment: Microscale thermophoresis (MST) binding assay; details: 5 nM NT647-labelled TOP2A(431-1193)
Procedure: It was transformed into BL21 (DE3) E. coli cells and induced by 0.5 mM IPTG for 16 h at 16 °C. Cells were lysed by sonication and protein purification was by chromatography with the Ni-NTA beads (Invitrogen), followed by a size exclusion chromatography (Superdex 200). […] A serial dilution of the inhibitors was prepared with 100% DMSO and subsequently mixed with the labeled fluorescent protein in the assay buffer (20 mM Tris pH 8.0, 100 mM NaCl, 0.1% NP40, 0.2 mM TCEP, and 0.1 mM PMSF) at the final concentrations of 0.015–500 uM. The final concentration of the protein was 5 nM. The labeled protein and small molecules mix were allowed to incubate in the dark at room temperature for 5 min before filling the capillaries. MST assays were performed with 5–20% LED/excitation power and medium MST power using premium capillaries for Monolith NT.115. The data for the estimation of Kd were analyzed using MO Affinity Analysis software from Nanotemper.
as §2

TOP2A(431-1193) = TOP2A(431-1193) (Homo sapiens, UniProt P11388 431-1193); experiment: fluorescence polarization; merbarone 0.01-200 uM; 3 mM Mg2+; FP: 20 mM HEPES-NaOH pH 7.4, 2 mM DTT, 3 mM MgCl2, 0.05% NP-40, protease inhibitors, room temperature 20 min; EMSA buffer not in material; details: protein: recombinant; tags: N-terminal 6xHis (pET28a); label: 3' 6-FAM (Results text says NT474 dye); blunt; self-complementary 20-mer, 2 copies
[15] = RPMI1640 plus 5% charcoal-stripped serum, plasma or biological fluid, cell culture media with serum, read-out: Solubility Media/FBS
[16] = methanol, organic solvent or mixture, methanol, read-out: Solubility Methanol
[17] = phosphate-buffered saline, aqueous buffer, PBS, read-out: Solubility PBS

T1 sequence (P11388 whole entry): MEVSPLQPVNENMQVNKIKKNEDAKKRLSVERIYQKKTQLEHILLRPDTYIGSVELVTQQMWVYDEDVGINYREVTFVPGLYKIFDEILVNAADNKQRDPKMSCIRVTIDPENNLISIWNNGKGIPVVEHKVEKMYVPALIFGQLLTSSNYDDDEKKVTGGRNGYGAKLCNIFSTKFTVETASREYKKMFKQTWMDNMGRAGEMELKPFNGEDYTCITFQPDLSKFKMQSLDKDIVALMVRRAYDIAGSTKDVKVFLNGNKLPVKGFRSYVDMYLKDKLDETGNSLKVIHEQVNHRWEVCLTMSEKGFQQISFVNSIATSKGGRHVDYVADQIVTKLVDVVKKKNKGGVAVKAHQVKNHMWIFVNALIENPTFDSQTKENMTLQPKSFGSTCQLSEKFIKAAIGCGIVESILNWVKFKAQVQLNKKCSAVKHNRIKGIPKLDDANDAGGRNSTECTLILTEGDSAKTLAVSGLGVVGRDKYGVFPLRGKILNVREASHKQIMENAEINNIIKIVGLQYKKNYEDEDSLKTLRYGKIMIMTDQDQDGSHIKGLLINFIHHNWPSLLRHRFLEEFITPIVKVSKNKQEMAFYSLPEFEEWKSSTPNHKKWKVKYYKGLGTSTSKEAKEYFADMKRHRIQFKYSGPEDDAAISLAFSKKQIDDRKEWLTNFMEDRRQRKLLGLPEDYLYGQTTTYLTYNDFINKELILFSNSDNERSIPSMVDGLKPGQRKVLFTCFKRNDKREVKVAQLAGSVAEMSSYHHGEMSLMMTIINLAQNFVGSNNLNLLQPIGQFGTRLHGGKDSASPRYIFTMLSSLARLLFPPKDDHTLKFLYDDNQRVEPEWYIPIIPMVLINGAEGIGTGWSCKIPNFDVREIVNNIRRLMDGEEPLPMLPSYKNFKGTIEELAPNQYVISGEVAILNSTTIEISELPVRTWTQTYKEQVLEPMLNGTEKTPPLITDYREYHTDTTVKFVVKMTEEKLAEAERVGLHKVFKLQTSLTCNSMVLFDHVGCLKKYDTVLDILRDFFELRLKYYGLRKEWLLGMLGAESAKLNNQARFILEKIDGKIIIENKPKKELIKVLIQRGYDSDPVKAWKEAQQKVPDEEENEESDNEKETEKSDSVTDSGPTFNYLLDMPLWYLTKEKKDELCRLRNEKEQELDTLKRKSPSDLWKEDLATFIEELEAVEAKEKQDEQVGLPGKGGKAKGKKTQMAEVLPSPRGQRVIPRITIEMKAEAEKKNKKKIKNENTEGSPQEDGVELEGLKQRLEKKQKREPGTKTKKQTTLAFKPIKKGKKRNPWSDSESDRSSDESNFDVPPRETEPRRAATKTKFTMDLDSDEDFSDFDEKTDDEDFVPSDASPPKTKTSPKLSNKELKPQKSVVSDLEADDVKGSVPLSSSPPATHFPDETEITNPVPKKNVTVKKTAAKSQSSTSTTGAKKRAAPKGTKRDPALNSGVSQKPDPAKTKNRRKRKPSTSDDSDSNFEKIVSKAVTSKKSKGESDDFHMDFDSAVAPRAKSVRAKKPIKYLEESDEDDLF
T4 sequence (P11388 whole entry): as above
T2 sequence (Q02880 whole entry): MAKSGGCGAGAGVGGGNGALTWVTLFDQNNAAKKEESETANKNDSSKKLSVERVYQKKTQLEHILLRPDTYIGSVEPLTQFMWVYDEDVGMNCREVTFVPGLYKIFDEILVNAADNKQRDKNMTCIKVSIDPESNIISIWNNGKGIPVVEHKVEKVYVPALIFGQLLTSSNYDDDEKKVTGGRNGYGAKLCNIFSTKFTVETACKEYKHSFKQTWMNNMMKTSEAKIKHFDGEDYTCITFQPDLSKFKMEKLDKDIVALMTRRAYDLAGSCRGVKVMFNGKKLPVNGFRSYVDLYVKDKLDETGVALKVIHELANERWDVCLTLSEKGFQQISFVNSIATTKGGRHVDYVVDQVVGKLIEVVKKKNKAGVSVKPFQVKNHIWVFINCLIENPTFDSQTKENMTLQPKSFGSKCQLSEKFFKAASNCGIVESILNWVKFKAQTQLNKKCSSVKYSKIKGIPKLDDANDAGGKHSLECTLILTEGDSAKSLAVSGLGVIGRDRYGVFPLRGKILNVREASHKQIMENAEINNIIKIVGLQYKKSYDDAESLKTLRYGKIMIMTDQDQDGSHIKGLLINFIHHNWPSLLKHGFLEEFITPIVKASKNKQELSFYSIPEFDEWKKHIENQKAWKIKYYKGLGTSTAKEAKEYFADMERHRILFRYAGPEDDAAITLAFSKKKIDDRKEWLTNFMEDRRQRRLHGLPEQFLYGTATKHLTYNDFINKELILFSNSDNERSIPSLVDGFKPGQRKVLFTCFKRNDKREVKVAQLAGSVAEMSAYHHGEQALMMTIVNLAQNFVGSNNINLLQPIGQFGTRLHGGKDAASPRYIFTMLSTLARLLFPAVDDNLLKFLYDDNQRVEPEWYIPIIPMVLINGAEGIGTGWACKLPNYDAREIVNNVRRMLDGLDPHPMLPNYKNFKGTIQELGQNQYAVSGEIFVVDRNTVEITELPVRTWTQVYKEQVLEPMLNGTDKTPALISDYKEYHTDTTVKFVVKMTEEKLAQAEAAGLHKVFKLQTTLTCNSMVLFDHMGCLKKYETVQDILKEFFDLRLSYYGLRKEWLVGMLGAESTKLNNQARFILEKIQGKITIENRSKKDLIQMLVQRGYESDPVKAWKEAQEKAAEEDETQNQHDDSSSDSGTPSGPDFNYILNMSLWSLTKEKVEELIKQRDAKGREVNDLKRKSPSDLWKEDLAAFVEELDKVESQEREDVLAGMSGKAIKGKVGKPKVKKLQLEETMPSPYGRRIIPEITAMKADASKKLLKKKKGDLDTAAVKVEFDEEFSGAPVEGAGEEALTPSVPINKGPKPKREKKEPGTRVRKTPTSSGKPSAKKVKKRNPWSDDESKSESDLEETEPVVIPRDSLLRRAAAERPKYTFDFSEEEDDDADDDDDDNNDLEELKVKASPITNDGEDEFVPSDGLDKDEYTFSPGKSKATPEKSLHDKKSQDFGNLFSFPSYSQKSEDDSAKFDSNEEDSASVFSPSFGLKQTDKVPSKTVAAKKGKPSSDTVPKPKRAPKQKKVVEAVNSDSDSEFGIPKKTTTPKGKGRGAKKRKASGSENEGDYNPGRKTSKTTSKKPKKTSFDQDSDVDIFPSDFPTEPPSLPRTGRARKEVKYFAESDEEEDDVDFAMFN
T5 sequence (Q02880 whole entry): as above
T3 sequence (P11388 431-1193): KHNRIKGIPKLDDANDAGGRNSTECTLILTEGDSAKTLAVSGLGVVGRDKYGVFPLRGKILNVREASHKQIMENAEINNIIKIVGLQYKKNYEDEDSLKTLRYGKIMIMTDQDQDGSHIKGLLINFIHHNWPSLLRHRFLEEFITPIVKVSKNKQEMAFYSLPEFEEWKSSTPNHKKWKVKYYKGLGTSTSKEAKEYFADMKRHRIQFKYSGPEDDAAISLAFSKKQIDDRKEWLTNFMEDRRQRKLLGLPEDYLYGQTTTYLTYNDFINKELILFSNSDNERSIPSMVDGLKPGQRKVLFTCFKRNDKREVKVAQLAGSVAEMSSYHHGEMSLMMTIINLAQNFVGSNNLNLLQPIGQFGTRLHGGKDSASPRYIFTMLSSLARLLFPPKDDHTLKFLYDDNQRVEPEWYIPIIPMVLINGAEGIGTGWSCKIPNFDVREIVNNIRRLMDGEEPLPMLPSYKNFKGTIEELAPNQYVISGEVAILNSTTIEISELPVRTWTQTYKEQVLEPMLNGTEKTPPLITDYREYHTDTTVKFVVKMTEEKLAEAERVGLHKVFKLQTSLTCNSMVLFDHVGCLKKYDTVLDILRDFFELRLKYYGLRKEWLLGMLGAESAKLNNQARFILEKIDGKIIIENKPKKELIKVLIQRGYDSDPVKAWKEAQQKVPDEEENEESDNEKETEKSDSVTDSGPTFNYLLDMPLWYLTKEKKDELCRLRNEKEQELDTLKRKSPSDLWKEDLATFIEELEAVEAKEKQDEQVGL
Sequence of TOP2A(431-1193) (P11388 431-1193): as above

O=C(Nc1ccc(Nc2ccccc2)cc1)c1ccc[nH]c1=S [T60]
solubility at 1 h (Solubility by LC/MS/MS; [15]): 206 µM
Solubility Media/FBS (Solubility by LC/MS/MS; cell culture media with serum): ~ 200 uM
solubility at 1 h (Solubility by LC/MS/MS; [16]): > 1000 µM
solubility at 1 h (Solubility by LC/MS/MS; [17]): 5.8 µM (≈ 1.86 µg/mL)
IC50 (TOP2A [1]): ~0.3 µM
IC50 (TOP2A [2]): 4.7 µM
IC50 (TOP2B [3]): ~3.1 µM
IC50 (TOP2B [4]): ~8.9 µM
Fluorescence induced by the ethidium bromide/DNA complex reduced by increasing doses (DNA intercalation) (salmon sperm DNA): not
Inhibition of TOP2A(431-1193)-DNA interaction (EMSA) (human TOP2A(431-1193) [5]): inhibited TOP2A–DNA interaction dose-dependently
Effect on TOP2A-DNA interaction (FP) (human TOP2A(431-1193) [6]): reduced the TOP2A–DNA interaction in a dose-dependent manner
Concentration at which the compound forms crystals in culture media with growing cells ([7]; cells treated for two days): ≥ 50 µM
half-life at 1 uM (in vitro): 51 min
microsomal CLint at 1 uM (in vitro): 46 µL/min/mg
Cytotoxicity (LDH release), in words (K562 cells [8]): not observed
inhibition at 20 µM (K562 leukemia cells; K562, 24 h): ~38%
inhibition at 20 µM (K562 leukemia cells; K562, 48 h): 71%
inhibition at 20 µM (K562 leukemia cells; K562, 72 h): 86%
Block of TOP2A-DNA oligo complex formation (EMSA) (full-length TOP2A [9]): block
Block of TOP2B-DNA oligo complex formation (EMSA) (full-length TOP2B [10]): block

CC(=O)Nc1cc(Nc2ccccc2)ccc1NC(=O)c1ccc[nH]c1=S [T637]
solubility at 1 h (Solubility by LC/MS/MS; [15]): 707 µM
solubility at 1 h (Solubility by LC/MS/MS; [16]): > 1000 µM
solubility at 1 h (Solubility by LC/MS/MS; [17]): 20 µM (≈ 7.57 µg/mL)
IC50 (TOP2A [1]): ~1.4 µM
IC50 (TOP2A [2]): 16.8 µM
IC50 (TOP2B [3]): ~8.9 µM
IC50 (TOP2B [4]): ~18.6 µM
Fluorescence induced by the ethidium bromide/DNA complex reduced by increasing doses (DNA intercalation) (salmon sperm DNA): not
Inhibition of TOP2A(431-1193)-DNA interaction (EMSA) (human TOP2A(431-1193) [5]): inhibited TOP2A–DNA interaction dose-dependently
Effect on TOP2A-DNA interaction (FP) (human TOP2A(431-1193) [6]): reduced the TOP2A–DNA interaction in a dose-dependent manner
Crystal formation in cell cultures, in words ([7]; up to 100 uM): no crystal formation
half-life at 1 uM (in vitro): 20 min
microsomal CLint at 1 uM (in vitro): 116 µL/min/mg
Cytotoxicity (LDH release), in words (K562 cells [8]): not observed
Maximum cell proliferation inhibition (K562 leukemia cells; 48 h): 100%
Maximum cell proliferation inhibition (K562 leukemia cells; 72 h): 100%
Intracellular DNA damage (phospho-H2AXγ protein levels) (K562 cells [11]): do not cause intracellular DNA damage
Block of TOP2A-DNA oligo complex formation (EMSA) (full-length TOP2A [9]): block
Block of TOP2B-DNA oligo complex formation (EMSA) (full-length TOP2B [10]): block
Prevention of etoposide-induced DNA cleavage, TOP2A (full-length TOP2A [12]): did prevent etoposide-induced DNA cleavage
Prevention of etoposide-induced DNA cleavage, TOP2B (full-length TOP2B [13]): did prevent etoposide-induced DNA cleavage

CNC(=O)c1ccc(N2C(=S)N(c3ccc(C#N)c(C(F)(F)F)c3)C(=O)C2(C)C)cc1F [enzalutamide]
Binding to TOP2A(431-1193) by MST (change of thermophoresis), in words (human TOP2A(431-1193) [14]): no alteration of thermophoresis

COc1cc([C@@H]2c3cc4c(cc3[C@@H](O[C@@H]3O[C@@H]5CO[C@@H](C)O[C@H]5[C@H](O)[C@H]3O)[C@H]3COC(=O)[C@H]23)OCO4)cc(OC)c1O [etoposide, reference compound]
Cytotoxicity (LDH release) (K562 cells [8]; K562, 20 uM, two days): up to 70%

COc1cc(NS(C)(=O)=O)ccc1Nc1c2ccccc2nc2ccccc12 [m-AMSA, amsacrine, reference compound]
Fluorescence induced by the ethidium bromide/DNA complex reduced by increasing doses (DNA intercalation) (salmon sperm DNA): reduced

O=C1NC(=S)NC(=O)C1C(=O)Nc1ccccc1 [merbarone, reference compound]
Binding to TOP2A(431-1193) by MST (change of thermophoresis), in words (human TOP2A(431-1193) [14]): no interaction
Inhibition of TOP2A(431-1193)-DNA interaction (EMSA) (human TOP2A(431-1193) [5]): did not affect the formation of the TOP2–DNA complex
Effect on TOP2A-DNA interaction (FP) (human TOP2A(431-1193) [6]): did not affect TOP2A–DNA interaction

ICRF193 [reference compound]
Block of TOP2A-DNA oligo complex formation (EMSA) (full-length TOP2A [9]): not
Prevention of etoposide-induced DNA cleavage, TOP2A (full-length TOP2A [12]): did not prevent etoposide-induced DNA cleavage
Prevention of etoposide-induced DNA cleavage, TOP2B (full-length TOP2B [13]): did not prevent etoposide-induced DNA cleavage

B1: 5ZRF DNA oligo (FAM) (dsDNA)
DNA 1: AGCCGAGCTGCAGCTCGGCT
DNA 2: AGCCGAGCTGCAGCTCGGCT
binding result (TOP2A(431-1193)): binds
